{
  "source": "patent US20110243993A1",
  "about": "“Method for diagnosing and creating immunogenic tolerance in contact allergy and other epithelial immunotoxicological ailments” (priority 2010, published 2011)",
  "key": {"[1]": {"conditions": "mouse, in vivo; cited from earlier work"}, "human keratinocytes": {"system": "human keratinocytes", "conditions": "for blebbing response of keratinocytes: compound added to human keratinocytes, vehicle DMSO", "from_the_text": "(§1) The third step is that this residue (C54) is situated in a stretch of K5 that has been shown through its interactions with desmoplakin, to be vital in maintaining the integrity of the desmosome. It is known that epithelial cells with a compromised cell-cell (and/or cell-matrix) contact undergo apoptosis (“anoikis”). […] Basal keratinocytes consists of up to 35% of insoluble keratin intermediate filaments (KIFs). As basal keratinocytes occasionally undergo apoptosis, a mechanism of waste removal of the debris of insoluble keratins has evolved. […] The keratin bodies bleb off the cells."}, "K5 and K14": {"system": "K5 and K14", "test": "Western blot of blebs using K5 and K14 antibodies", "format": "cell-based, human", "conditions": "blebs from hapten-exposed keratinocytes", "from_the_text": "Elevated levels of ANA are common features in various autoimmune diseases such as Sjögrens syndrome (SS), rheumatoid arthritis (RA) and systemic lupus erythematosus (SLE).\nas §1"}, "[2]": {"system": "anti-nuclear antibodies (ANA)", "test": "Levels of anti-nuclear antibodies (ANA) after contact with sensitizing compounds", "conditions": "contact with sensitizing compound"}, "[3]": {"system": "serum amyloid P component (SAP)", "test": "ELISA detection of serum amyloid protein (SAP) in sera of hapten-exposed mice", "conditions": "mice exposed on skin, booster dose on day 10", "description": "Extreme sensitizers: Oxazolone (4-Ethoxymethylene-2-phenyl-2-oxazolin-5-one, 1.4 mM) CDNB (1-Chloro-2,4-dinitrobenzene, 7.4 mM)); Strong sensitizers: dBBr (48.6 mM), Glyoxal (ethane-1,2-dione, 1.27 M). DMSO was used as control. All chemicals are purchased from Sigma-Aldrich (Stockholm, Sweden).\nApply 25 μl of the solution to the back of both ears (25 μl on each ear), once daily, on day 1, 2 and 3. Apply a booster dose on day 10 (if necessary). Sacrifice the mice on day 6 (or day 13 if a booster dose is used) by anesthetization with isoflurane (Kent Scientific Corporation, Torrington, Conn., USA) followed by inhalation of carbon dioxide (AGA, Lidingö, Sverige). To collect blood: Use a 1 ml syringe (B. Braun Medical Inc., Bethlehem, Pa., USA) with a 0.4 mm×12 mm injection needle (B. Braun Medical Inc., Bethlehem, Pa., USA). Place the tip of the needle just below the breastbone so that the syringe is linear to the abdomen. Insert the needle just below the breastbone and press it towards the heart. When inside the heart, withdraw blood. It is important to loosen the piston a little from the bottom of the syringe before inserting into the mouse. Carefully rotate the syringe during withdrawal to avoid clotting. […]\nThe SAP Mouse, ELISA kit 96 tests, quantitative (Alpha Diagnostics International Inc., San Antonio, Tex., USA) is used. […]"}, "[4]": {"test": "Induction of oral tolerance in humans allergic to cinnamic aldehyde", "format": "in vivo, human", "conditions": "once a day for 5-100 days, vs placebo (tap water)", "from_the_text": "Peptides (including, but not limited to): 1: [Ace]-[…]-[Amide]; 2: [Ace]-[…]-[Amide], 3: [Ace]-[…]-[Amide]. The peptides 1 and 2 represent sequences from keratin 5 and peptide 3 is derived from keratin 14; however, it is the intention that the invention also includes peptides and/or proteins from other proteins, e.g. such as those found in the blebs from keratinocytes that have been exposed to haptens.\nPreparation of amino acid containing epitope targets as described in example 3.\nOf 20 individuals with a confirmed allergy to the hapten cinnamic aldehyde, 10 are given a test solution of 0.5 mg to 10 g amino acid containing epitope target 1 once a day for 5-100 days. The other 10 individuals are given a placebo (i.e. tap water) to drink according to the same administration scheme and time table as described above. The antibody and T cell epitope mapping profiles for each individual are then evaluated according to procedures in example 4 and 5. Each individual is also patch-tested with cinnamic aldehyde."}, "cysteine 54 (C54) of K5": {"target": "T1, cysteine 54 (C54) of K5 (Homo sapiens, UniProt P13647)", "T1 construct": "endogenous in cells; host or cells: living (primary) human keratinocytes and intact full-thickness human skin", "T1 sequence (P13647 1-590)": "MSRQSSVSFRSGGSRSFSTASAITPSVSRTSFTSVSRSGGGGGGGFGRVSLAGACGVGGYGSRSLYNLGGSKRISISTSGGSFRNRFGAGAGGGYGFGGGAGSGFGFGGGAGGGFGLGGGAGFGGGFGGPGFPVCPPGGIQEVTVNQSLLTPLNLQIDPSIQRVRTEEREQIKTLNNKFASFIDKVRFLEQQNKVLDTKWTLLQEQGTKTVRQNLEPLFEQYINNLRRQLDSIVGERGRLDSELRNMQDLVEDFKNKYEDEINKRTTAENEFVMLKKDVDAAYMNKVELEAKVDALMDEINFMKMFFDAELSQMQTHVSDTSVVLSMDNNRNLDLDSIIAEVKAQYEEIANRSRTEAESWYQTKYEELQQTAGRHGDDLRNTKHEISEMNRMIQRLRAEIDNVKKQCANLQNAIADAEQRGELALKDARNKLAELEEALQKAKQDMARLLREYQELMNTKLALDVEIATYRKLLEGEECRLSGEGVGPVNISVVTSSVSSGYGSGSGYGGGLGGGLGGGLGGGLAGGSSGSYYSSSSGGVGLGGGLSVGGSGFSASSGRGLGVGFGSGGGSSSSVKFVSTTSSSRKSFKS", "T1 sequence (P02533 1-472 partner)": "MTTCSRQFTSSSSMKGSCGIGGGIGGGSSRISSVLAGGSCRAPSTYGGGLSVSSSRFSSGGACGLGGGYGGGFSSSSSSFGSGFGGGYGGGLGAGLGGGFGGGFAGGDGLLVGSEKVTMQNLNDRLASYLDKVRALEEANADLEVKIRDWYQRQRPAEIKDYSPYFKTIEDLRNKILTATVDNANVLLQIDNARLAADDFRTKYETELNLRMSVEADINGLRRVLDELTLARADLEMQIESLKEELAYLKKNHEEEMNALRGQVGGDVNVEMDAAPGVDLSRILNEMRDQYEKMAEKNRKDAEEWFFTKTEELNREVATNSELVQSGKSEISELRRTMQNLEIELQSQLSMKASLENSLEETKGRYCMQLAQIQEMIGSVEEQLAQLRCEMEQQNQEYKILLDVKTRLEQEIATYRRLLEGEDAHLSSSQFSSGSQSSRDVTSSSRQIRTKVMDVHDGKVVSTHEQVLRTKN", "test": "Identification of haptenation site with LTQ-FT-ICR mass spectrometer", "from_the_text": "The second step is that the molecules enter the basal cells. Since the extracellular environment is oxidizing, extracellular cysteines are mostly oxidized to disulfides. However, it is in the reduced, intracellular environment that the haptens find reduced thiols to react with. Once inside the cells the compounds will react with available (i.e. not sterically hindered) reduced cysteines (thiol groups). […] Furthermore, it was identified that one of the cysteines that the haptens react with is cysteine 54 (C54) of K5. […] One of the reasons for intense reaction at C54 is presumably its high effective concentration just inside the cell membrane. It is vital in the life of an organism to fail-safe its epithelial integrity, and the bundling of the KIFs ensures a high effective local concentration of the peptide stretch containing C54, ensuring strong welding of the cell to its surroundings. Amino acids nearby in the primary sequence are consequently also located within physical reach of an incoming compound in similarly high effective concentrations. Looking at blebbing brought on by amine- and arginine-reactive compounds from this angle, the residues K71 and R72 are the closest candidates in the primary sequence."}, "keratins": {"system": "keratins", "test": "Cross-linking of bleb proteins by bidentate haptens", "set-up": "species or system human", "conditions": "bidentate hapten", "from_the_text": "In SDS-PAGE experiments it was shown that thiol-, amine-, and arginine-reactive sensitizers give rise to blebs that contain the same protein bands. In this step, it is thus shown that by adding haptens to keratinocytes, the haptens induce expulsion of a high amount of cryptic epitopes that are normally concealed from the immune system through their intracellular location and/or neoepitopes consisting of haptenated/differently processed peptides and proteins. It was also shown, using a LTQ-FT-ICR mass spectrometer coupled to a nanospray source, that the blebs contain other proteins, for example peptidyl-prolyl cis-trans isomerase A, stathmin, calmodulin, cofilin-1, transgelin-2, 14-3-3 protein sigma, annexin A2, tubulin, keratin 6A 6B 6C, transitional endoplasmic reticulum ATPase, endoplasmin, and importin-5. […] It was also shown that the sensitizing compounds also modify other proteins and that these proteins are released in blebs, as visualized by fluorescent bands on SDS-gels."}, "[5]": {"conditions": "naïve mice; cited from earlier work"}},
  "note": "“Also recorded” adds a separate entry of the source.",
  "data": [
    {"compound": "O=c1[nH]sc2ccccc12", "note": "[1,2-Benzisothiazolin-3-one]", "values": [
      {"measurement": "sensitizer class by EC3-value", "setting": "[1]", "value": "Moderate (key: Extreme: For extreme sensitizers (EC3<0.1%); Strong: For strong sensitizers (0.1%<EC3<1%); Moderate: For moderate sensitizers (1%<EC3<10%); Weak: For weak sensitizers (EC3>10%))"}
    ]},
    {"compound": "CCCCCCC(C=O)=Cc1ccccc1", "note": "[α-Hexyl-cinnamicaldehyde]", "values": [
      {"measurement": "sensitizer class by EC3-value", "setting": "[1]", "value": "Weak (key: Extreme: For extreme sensitizers (EC3<0.1%); Strong: For strong sensitizers (0.1%<EC3<1%); Moderate: For moderate sensitizers (1%<EC3<10%); Weak: For weak sensitizers (EC3>10%))"}
    ]},
    {"compound": "C=O", "note": "[Formaldehyde]", "values": [
      {"measurement": "sensitizer class by EC3-value", "setting": "[1]", "value": "Strong (key: Extreme: For extreme sensitizers (EC3<0.1%); Strong: For strong sensitizers (0.1%<EC3<1%); Moderate: For moderate sensitizers (1%<EC3<10%); Weak: For weak sensitizers (EC3>10%))"}
    ]},
    {"compound": "CCCCCCCCCCCCOS(=O)(=O)[O-].[Na+]", "note": "[SDS, Sodium dodecyl sulphate]", "values": [
      {"measurement": "cellular response other than blebbing", "setting": "human keratinocytes; human keratinocytes exposed to compound", "value": "cells seem to “dissolve”"}
    ]},
    {"compound": "O=CC=O", "note": "[Glyoxal, ethane-1,2-dione]", "values": [
      {"measurement": "blebbing response of keratinocytes", "setting": "human keratinocytes", "value": "provoke a blebbing response"},
      {"measurement": "sensitizer class by EC3-value", "setting": "[1]", "value": "Strong (key: Extreme: For extreme sensitizers (EC3<0.1%); Strong: For strong sensitizers (0.1%<EC3<1%); Moderate: For moderate sensitizers (1%<EC3<10%); Weak: For weak sensitizers (EC3>10%))"},
      {"measurement": "keratins (K5 and K14) in blebs", "setting": "K5 and K14", "value": "contain K5 and K14; also recorded: also contain keratins"},
      {"measurement": "levels of anti-nuclear antibodies (ANA)", "setting": "[2]", "value": "increased levels"},
      {"measurement": "levels of SAP protein in sera", "setting": "[3]", "value": "increased levels"}
    ]},
    {"compound": "[Ace]-VSLGGACGAGGYG-[Amide] [amino acid containing epitope target 1]", "values": [
      {"measurement": "antibodies and T cells against the amino acid containing epitope target", "setting": "[4]", "value": "less antibodies and T cells"},
      {"measurement": "reaction to cinnamic aldehyde in the patch test", "setting": "[4]", "value": "less reaction"}
    ]},
    {"compound": "Cc1c(C)n2c(CBr)c(C)c(=O)n2c1=O", "note": "[mBBr]", "values": [
      {"measurement": "covalent modification of C54 of K5", "setting": "cysteine 54 (C54) of K5; intact, full-thickness human skin", "value": "modifies C54 of K5"},
      {"measurement": "covalent modification of C54 of K5", "setting": "cysteine 54 (C54) of K5; living human keratinocytes", "value": "modify C54 of K5; also recorded: modifies C54 of K5"}
    ]},
    {"compound": "Cc1c(CBr)n2c(CBr)c(C)c(=O)n2c1=O", "note": "[dBBr, dibromobimane]", "values": [
      {"measurement": "cross links between proteins", "setting": "keratins", "value": "cause cross links between for example keratins"},
      {"measurement": "levels of anti-nuclear antibodies (ANA)", "setting": "[2]", "value": "increased levels"}
    ]},
    {"compound": "O=[N+]([O-])c1ccc(Cl)c([N+](=O)[O-])c1", "note": "[CDNB, 1-Chloro-2,4-dinitrobenzene]", "values": [
      {"measurement": "blebbing response of keratinocytes", "setting": "human keratinocytes", "value": "provoke a blebbing response"},
      {"measurement": "sensitizer class by EC3-value", "setting": "[1]", "value": "Extreme (key: Extreme: For extreme sensitizers (EC3<0.1%); Strong: For strong sensitizers (0.1%<EC3<1%); Moderate: For moderate sensitizers (1%<EC3<10%); Weak: For weak sensitizers (EC3>10%))"},
      {"measurement": "levels of anti-nuclear antibodies (ANA)", "setting": "[2]", "value": "increased levels"},
      {"measurement": "levels of SAP protein in sera", "setting": "[3]", "value": "increased levels"}
    ]},
    {"compound": "[Ni]", "note": "[nickel]", "values": [
      {"measurement": "protection against the hapten after tolerance induction", "setting": "[5]", "value": "some protection"}
    ]},
    {"compound": "CCOC=C1N=C(c2ccccc2)OC1=O", "note": "[Oxazolone, 4-Ethoxymethylene-2-phenyl-2-oxazolin-5-one]", "values": [
      {"measurement": "blebbing response of keratinocytes", "setting": "human keratinocytes", "value": "provoke a blebbing response"},
      {"measurement": "protection against the hapten after tolerance induction", "setting": "[5]", "value": "some protection"},
      {"measurement": "keratins (K5 and K14) in blebs", "setting": "K5 and K14", "value": "contain K5 and K14; also recorded: also contain keratins"},
      {"measurement": "levels of anti-nuclear antibodies (ANA)", "setting": "[2]", "value": "increased levels"}
    ]},
    {"compound": "O=CCc1ccccc1", "note": "[Phenylacetaldehyde]", "values": [
      {"measurement": "sensitizer class by EC3-value", "setting": "[1]", "value": "Moderate (key: Extreme: For extreme sensitizers (EC3<0.1%); Strong: For strong sensitizers (0.1%<EC3<1%); Moderate: For moderate sensitizers (1%<EC3<10%); Weak: For weak sensitizers (EC3>10%))"}
    ]}
  ]
}
